Measurements from PubChem BioAssay AID248 (DTP/NCI, 2004).
“And” between values parts separate entries of the source, which are not always exact repeats. Equal values may be shown once. Toxic doses and inconclusive results are not listed. Cut-off read from the data, not from the text of the source: active = T/C of 150% or more; inactive = T/C below 125%.

System: L1210 leukemia ip in BDF1 mice, survival T/C
Assay: NCI In Vivo Anticancer Drug Screen. Data for tumor model L1210 Leukemia (intraperitoneal) in B6D2F1 (BDF1) mice
Conditions: higher = longer survival
Outline: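 Each compound was tested against a transplantable tumor grown in mice. The endpoint was survival, with treated animals benchmarked against vehicle controls as a simple ratio.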

Measured: T/C

S=c1nc[nH]c2nc[nH]c12
inactive: endpoint: mean survival time, dose: 0.15 mg/kg/injection, schedule: Q01DX001 (ip), vehicle: other 102 % of control | endpoint: mean survival time, dose: 0.15 mg/kg/injection, schedule: Q01DX Z (ip), vehicle: other 98 % of control | endpoint: mean survival time, dose: 0.3 mg/kg/injection, schedule: Q01DX001 (ip), vehicle: other 101 % of control | endpoint: mean survival time, dose: 0.3 mg/kg/injection, schedule: Q01DX Z (ip), vehicle: other 101 % of control | endpoint: mean survival time, dose: 0.6 mg/kg/injection, schedule: Q01DX001 (ip), vehicle: other 93 % of control and 101 % of control | endpoint: mean survival time, dose: 0.6 mg/kg/injection, schedule: Q01DX Z (ip), vehicle: other 96 % of control | endpoint: mean survival time, dose: 0.63 mg/kg/injection, schedule: Q01DX015 (ip), vehicle: alkali diluted with saline 95 % of control | endpoint: mean survival time, dose: 1.1 mg/kg/injection, schedule: Q01DX001 (ip), vehicle: other 104 % of control | endpoint: mean survival time, dose: 1.25 mg/kg/injection, schedule: Q01DX015 (ip), vehicle: alkali diluted with saline 95 % of control | endpoint: mean survival time, dose: 1.3 mg/kg/injection, schedule: Q01DX001 (ip), vehicle: other 101 % of control | endpoint: mean survival time, dose: 1.3 mg/kg/injection, schedule: Q01DX Z (ip), vehicle: other 102 % of control | endpoint: mean survival time, dose: 1.9 mg/kg/injection, schedule: Q01DX009 (ip), vehicle: alkali diluted with saline 107 % of control | endpoint: mean survival time, dose: 2.0 mg/kg/injection, schedule: Q01DX001 (ip), vehicle: carboxymethylcellulose (CMC) 107 % of control | endpoint: mean survival time, dose: 2.2 mg/kg/injection, schedule: Q01DX001 (ip), vehicle: other 104 % of control | endpoint: mean survival time, dose: 2.5 mg/kg/injection, schedule: Q01DX015 (ip), vehicle: alkali diluted with saline 100 % of control | endpoint: mean survival time, dose: 2.5 mg/kg/injection, schedule: Q01DX Z (ip), vehicle: other 107 % of control | endpoint: mean survival time, dose: 3.8 mg/kg/injection, schedule: Q01DX009 (ip), vehicle: alkali diluted with saline 105 % of control | endpoint: mean survival time, dose: 3.8 mg/kg/injection, schedule: Q03DX Z (ip), vehicle: other 108 % of control | endpoint: mean survival time, dose: 4.0 mg/kg/injection, schedule: Q01DX001 (ip), vehicle: carboxymethylcellulose (CMC) 98 % of control | endpoint: mean survival time, dose: 4.4 mg/kg/injection, schedule: Q01DX001 (ip), vehicle: other 102 % of control | endpoint: mean survival time, dose: 5.0 mg/kg/injection, schedule: Q01DX015 (ip), vehicle: alkali diluted with saline 103 % of control | endpoint: mean survival time, dose: 5.0 mg/kg/injection, schedule: Q01DX Z (ip), vehicle: alkali diluted with saline 104 % of control and 110 % of control | endpoint: mean survival time, dose: 7.5 mg/kg/injection, schedule: Q01DX009 (ip), vehicle: alkali diluted with saline 101 % of control | endpoint: mean survival time, dose: 7.5 mg/kg/injection, schedule: Q01DX009 (ip), vehicle: saline 103 % of control | endpoint: mean survival time, dose: 7.5 mg/kg/injection, schedule: Q03DX Z (ip), vehicle: other 111 % of control | endpoint: mean survival time, dose: 8.0 mg/kg/injection, schedule: Q01DX001 (ip), vehicle: carboxymethylcellulose (CMC) 95 % of control | endpoint: mean survival time, dose: 8.0 mg/kg/injection, schedule: Q04DX002 (ip), vehicle: alkali diluted with saline 105 % of control and 106 % of control | endpoint: mean survival time, dose: 10.0 mg/kg/injection, schedule: Q01DX006 (iv), vehicle: other 103 % of control | endpoint: mean survival time, dose: 10.0 mg/kg/injection, schedule: Q01DX009 (oral), vehicle: saline with Tween-80 102 % of control and 107 % of control | endpoint: mean survival time, dose: 10.0 mg/kg/injection, schedule: Q01DX015 (ip), vehicle: alkali diluted with saline 101 % of control | endpoint: mean survival time, dose: 10.0 mg/kg/injection, schedule: Q01DX Z (ip), vehicle: alkali diluted with saline 110 % of control | endpoint: mean survival time, dose: 10.0 mg/kg/injection, schedule: Q01DX Z (sc), vehicle: other 111 % of control | endpoint: mean survival time, dose: 12.0 mg/kg/injection, schedule: Q04DX003 (ip), vehicle: saline 105 % of control | endpoint: mean survival time, dose: 12.5 mg/kg/injection, schedule: Q01DX009 (ip), vehicle: saline 112 % of control | endpoint: mean survival time, dose: 12.5 mg/kg/injection, schedule: Q01DX017 (ip), vehicle: other 104 % of control | endpoint: mean survival time, dose: 12.5 mg/kg/injection, schedule: Q01DX Z (ip), vehicle: other 105 % of control | endpoint: mean survival time, dose: 15.0 mg/kg/injection, schedule: Q01DX009 (ip), vehicle: saline 112 % of control | endpoint: mean survival time, dose: 16.0 mg/kg/injection, schedule: Q01DX001 (ip), vehicle: carboxymethylcellulose (CMC) 101 % of control | endpoint: mean survival time, dose: 16.0 mg/kg/injection, schedule: Q04DX002 (ip), vehicle: alkali diluted with saline 100 % of control and 102 % of control | endpoint: mean survival time, dose: 18.0 mg/kg/injection, schedule: Q01DX015 (ip), vehicle: alkali diluted with saline 104 % of control | endpoint: mean survival time, dose: 20.0 mg/kg/injection, schedule: Q01DX005 (ip), vehicle: alkali diluted with water 108 % of control and 111 % of control | endpoint: mean survival time, dose: 20.0 mg/kg/injection, schedule: Q01DX006 (iv), vehicle: other 108 % of control | endpoint: mean survival time, dose: 20.0 mg/kg/injection, schedule: Q01DX009 (oral), vehicle: saline with Tween-80 98 % of control and 105 % of control | endpoint: mean survival time, dose: 20.0 mg/kg/injection, schedule: Q01DX Z (ip), vehicle: alkali diluted with saline 110 % of control | endpoint: mean survival time, dose: 20.0 mg/kg/injection, schedule: Q02DX008 (ip), vehicle: alkali diluted with saline 105 % of control | endpoint: mean survival time, dose: 27.0 mg/kg/injection, schedule: Q01DX015 (ip), vehicle: alkali diluted with saline 106 % of control | endpoint: mean survival time, dose: 30.0 mg/kg/injection, schedule: Q04DX003 (ip), vehicle: saline 109 % of control | endpoint: mean survival time, dose: 32.0 mg/kg/injection, schedule: Q01DX001 (ip), vehicle: carboxymethylcellulose (CMC) 101 % of control | endpoint: mean survival time, dose: 32.0 mg/kg/injection, schedule: Q04DX002 (ip), vehicle: alkali diluted with saline 102 % of control and 103 % of control | endpoint: mean survival time, dose: 35.0 mg/kg/injection, schedule: Q01DX011 (ip), vehicle: alkali diluted with saline 108 % of control | endpoint: mean survival time, dose: 40.0 mg/kg/injection, schedule: Q01DX001 (ip), vehicle: alkali diluted with saline 104 % of control | endpoint: mean survival time, dose: 40.0 mg/kg/injection, schedule: Q01DX006 (iv), vehicle: other 111 % of control | endpoint: mean survival time, dose: 40.0 mg/kg/injection, schedule: Q#A X Z (ip), vehicle: other 94 % of control | endpoint: mean survival time, dose: 45.0 mg/kg/injection, schedule: Q06HX012 (ip), vehicle: alkali diluted with saline 96 % of control | endpoint: mean survival time, dose: 53.0 mg/kg/injection, schedule: Q01DX011 (ip), vehicle: alkali diluted with saline 109 % of control | endpoint: mean survival time, dose: 60.0 mg/kg/injection, schedule: Q01DX001 (ip), vehicle: alkali diluted with saline 110 % of control and 111 % of control | endpoint: mean survival time, dose: 60.0 mg/kg/injection, schedule: Q## X015 (ip), vehicle: other 107 % of control | endpoint: mean survival time, dose: 64.0 mg/kg/injection, schedule: Q01DX001 (ip), vehicle: carboxymethylcellulose (CMC) 98 % of control | endpoint: mean survival time, dose: 80.0 mg/kg/injection, schedule: Q01DX Z (ip), vehicle: carboxymethylcellulose (CMC) 105 % of control | endpoint: mean survival time, dose: 90.0 mg/kg/injection, schedule: Q01DX009 (ip), vehicle: carboxymethylcellulose (CMC) 107 % of control | endpoint: mean survival time, dose: 109.0 mg/kg/injection, schedule: Q01DX001 (ip), vehicle: alkali diluted with saline 110 % of control and 112 % of control | endpoint: mean survival time, dose: 109.0 mg/kg/injection, schedule: Q## X001 (ip), vehicle: alkali diluted with saline 111 % of control | endpoint: mean survival time, dose: 112.0 mg/kg/injection, schedule: Q02DX010 (ip), vehicle: carboxymethylcellulose (CMC) 110 % of control | endpoint: mean survival time, dose: 120.0 mg/kg/injection, schedule: Q01DX009 (ip), vehicle: carboxymethylcellulose (CMC) 103 % of control | endpoint: mean survival time, dose: 128.0 mg/kg/injection, schedule: Q01DX001 (ip), vehicle: carboxymethylcellulose (CMC) 95 % of control | endpoint: mean survival time, dose: 129.2 mg/kg/injection, schedule: Q02DX010 (ip), vehicle: carboxymethylcellulose (CMC) 110 % of control | endpoint: mean survival time, dose: 146.0 mg/kg/injection, schedule: Q01DX001 (ip), vehicle: alkali diluted with saline 108 % of control and 112 % of control | endpoint: mean survival time, dose: 151.0 mg/kg/injection, schedule: Q01DX015 (ip), vehicle: other 105 % of control | endpoint: mean survival time, dose: 160.0 mg/kg/injection, schedule: Q01DX009 (ip), vehicle: saline with Tween-80 104 % of control | endpoint: mean survival time, dose: 160.0 mg/kg/injection, schedule: Q01DX Z (im), vehicle: other 102 % of control | endpoint: mean survival time, dose: 200.0 mg/kg/injection, schedule: Q01DX009 (ip), vehicle: Klucel (hydroxypropylcellulose) (HPC) 103 % of control | endpoint: mean survival time, dose: 200.0 mg/kg/injection, schedule: Q01DX009 (ip), vehicle: alkali diluted with saline 108 % of control | endpoint: mean survival time, dose: 200.0 mg/kg/injection, schedule: Q## X009 (ip), vehicle: alkali diluted with saline 108 % of control | endpoint: mean survival time, dose: 202.0 mg/kg/injection, schedule: Q01DX009 (ip), vehicle: alkali diluted with saline 95 % of control | endpoint: mean survival time, dose: 240.0 mg/kg/injection, schedule: Q01DX009 (ip), vehicle: alkali diluted with saline 96 % of control | endpoint: mean survival time, dose: 240.0 mg/kg/injection, schedule: Q03DX Z (ip), vehicle: other 101 % of control | endpoint: mean survival time, dose: 256.0 mg/kg/injection, schedule: Q01DX001 (ip), vehicle: carboxymethylcellulose (CMC) 98 % of control | endpoint: mean survival time, dose: 303.0 mg/kg/injection, schedule: Q04DX003 (ip), vehicle: saline with Tween-80 101 % of control | endpoint: mean survival time, dose: 400.0 mg/kg/injection, schedule: Q04DX003 (ip), vehicle: saline with Tween-80 101 % of control | endpoint: mean survival time, dose: 510.0 mg/kg/injection, schedule: Q04DX002 (ip), vehicle: alkali diluted with saline 96 % of control and 104 % of control | endpoint: mean survival time, dose: 1020.0 mg/kg/injection, schedule: Q07DX Z (ip), vehicle: other 93 % of control | endpoint: mean survival time, dose: 2675.0 micrograms/kg/injection, schedule: Q01DX Z (ip), vehicle: carboxymethylcellulose (CMC) 108 % of control | endpoint: median survival time, dose: 6.25 mg/kg/injection, schedule: Q01DX009 (ip), vehicle: other 105 % of control | endpoint: median survival time, dose: 25.0 mg/kg/injection, schedule: Q01DX009 (ip), vehicle: other 111 % of control | endpoint: median survival time, dose: 100.0 mg/kg/injection, schedule: Q01DX009 (ip), vehicle: other 111 % of control | endpoint: median survival time, dose: 160.0 mg/kg/injection, schedule: Q01DX009 (ip), vehicle: saline 100 % of control
